Source: US10253002B2, “Compounds and methods of treating infections” (Neoculi Pty Ltd., priority 2013, dated 2019)
Converted amounts (≈) assume the structure as drawn.

What was measured:
Experiment in all cases: Broth microdilution MIC, Example 7 (NCL812 and analogues)
MRSA = assay type: cell-based, Staphylococcus aureus; details: for activity against MRSA among analogues: MIC testing, two MRSA strains
Procedure, shortened: (§1)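 Turbidity read visually and then at 600 nm defined the MIC (μg/ml), comparing drug-containing wells with a growth-control well lacking antimicrobial. Testing followed the CLSI broth microdilution method, in duplicate, using two strains per organism group.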

VRE = assay type: cell-based, Enterococcus spp.; details: for activity against VRE among analogues: MIC testing, two VRE strains
Procedure, shortened: as §1

Escherichia coli = assay type: cell-based; details: 24 hours
Pseudomonas aeruginosa = assay type: cell-based; details: 24 hours
[1] = isolate MRSA 1, 1st and 2nd replicate rows
[2] = isolate MRSA 2, 1st and 2nd replicate rows
[3] = isolate VRE 1, 1st and 2nd replicate rows
[4] = isolate VRE 2, 1st and 2nd replicate rows
[5] = MRSA 1, duplicate lines per compound
[6] = MRSA 2, duplicate lines per compound
[7] = VRE 1, duplicate lines per compound
[8] = VRE 2, duplicate lines per compound
[9] = E. coli, duplicate lines per compound
[10] = P. aeruginosa, duplicate lines per compound

| MIC (μg/ml) at 24 hours, MRSA 1 (MRSA; [1]) | MIC (μg/ml) at 24 hours, MRSA 2 (MRSA; [2]) | MIC (μg/ml) at 24 hours, VRE 1 (VRE; [3]) | MIC (μg/ml) at 24 hours, VRE 2 (VRE; [4]) | MIC (μg/ml) at 24 hours, E. coli (Escherichia coli; 1st and 2nd replicate rows) | MIC (μg/ml) at 24 hours, P. aeruginosa (Pseudomonas aeruginosa; 1st and 2nd replicate rows) | MIC (μg/ml) at 24 hours, MRSA 1 (MRSA; [5]) | MIC (μg/ml) at 24 hours, MRSA 2 (MRSA; [6]) | MIC (μg/ml) at 24 hours, VRE 1 (VRE; [7]) | MIC (μg/ml) at 24 hours, VRE 2 (VRE; [8]) | MIC (μg/ml) at 24 hours, E. coli (Escherichia coli; [9]) | MIC (μg/ml) at 24 hours, P. aeruginosa (Pseudomonas aeruginosa; [10]) | Compound | activity against MRSA among analogues (MRSA) | activity against VRE among analogues (VRE) |
| --- | --- | --- | --- | --- | --- | --- | --- | --- | --- | --- | --- | --- | --- | --- |
| >128 µg/mL | >128 µg/mL | >128 µg/mL | >128 µg/mL | >128 µg/mL | >128 µg/mL |  |  |  |  |  |  | FC(F)(F)c1ccc(C=NNC(=S)NN=Cc2ccc(C(F)(F)F)cc2)cc1 [NCL063] |  |  |
| >128 µg/mL | >128 µg/mL | >128 µg/mL | >128 µg/mL | >128 µg/mL | >128 µg/mL |  |  |  |  |  |  | N#Cc1ccccc1C=NNC(=S)NN=Cc1ccccc1C#N [NCL064] |  |  |
| >128 µg/mL | >128 µg/mL | >128 µg/mL | >128 µg/mL | >128 µg/mL | >128 µg/mL |  |  |  |  |  |  | N#Cc1cccc(/C=N/NC(=S)N/N=C/c2cccc(C#N)c2)c1 [NCL065] |  |  |
| >128 µg/mL | >128 µg/mL | >128 µg/mL | >128 µg/mL | >128 µg/mL | >128 µg/mL |  |  |  |  |  |  | Fc1cccc(/C=N/NC(=S)N/N=C/c2cccc(F)c2)c1 [NCL066] |  |  |
| >128 µg/mL | >128 µg/mL | >128 µg/mL | >128 µg/mL | >128 µg/mL | >128 µg/mL |  |  |  |  |  |  | NC(=O)N/N=C/c1cccc(C(F)(F)F)c1 [NCL067] |  |  |
| >128 µg/mL | >128 µg/mL | >128 µg/mL | >128 µg/mL | >128 µg/mL | >128 µg/mL |  |  |  |  |  |  | C/C(=N\NC(=N)N/N=C/c1ccc(C(F)(F)F)cc1)c1ccc(Cl)cc1.Cl [NCL068] |  |  |
| 128 µg/mL | 128 µg/mL | 128 µg/mL | 64 µg/mL | >128 µg/mL | >128 µg/mL |  |  |  |  |  |  | CC(=NNC(=N)NN)c1ccc(Cl)cc1.Cl [NCL069] | greatest activity | greatest activity |
| >128 µg/mL | >128 µg/mL | >128 µg/mL | 32 µg/mL (≈ 91.1 µM) | >128 µg/mL | >128 µg/mL |  |  |  |  |  |  | S=C(N/N=C/c1cccc(Cl)c1)N/N=C/c1cccc(Cl)c1 [NCL070] |  | greatest activity |
|  |  |  |  |  |  | 32 µg/mL | 64 µg/mL | 64 µg/mL | 64 µg/mL | >128 µg/mL | >128 µg/mL | Cl.N=C(NN)NN=Cc1ccc(Cl)cc1 [NCL072] | greatest activity | greatest activity |
|  |  |  |  |  |  | 128 µg/mL | 128 µg/mL | 16 µg/mL | 64 µg/mL | >128 µg/mL | >128 µg/mL | CC(=NNC(=N)NN)c1ccc(C(F)(F)F)cc1.Cl [NCL073] | greatest activity | greatest activity |
|  |  |  |  |  |  | >128 µg/mL | >128 µg/mL | >128 µg/mL | >128 µg/mL | >128 µg/mL | >128 µg/mL | C/C(=N\NC(=N)N/N=C/c1ccc(C(F)(F)F)cc1)c1ccc(C(F)(F)F)cc1.Cl [NCL075] |  |  |
|  |  |  |  |  |  | >128 µg/mL | >128 µg/mL | >128 µg/mL | >128 µg/mL | >128 µg/mL | >128 µg/mL | Cc1ccc(C=NNC(=N)NN=Cc2ccc(Cl)cc2)cc1.Cl [NCL076] |  |  |
|  |  |  |  |  |  | >128 µg/mL | >128 µg/mL | >128 µg/mL | >128 µg/mL | >128 µg/mL | >128 µg/mL | Cl.N=C(N/N=C/c1ccc(Cl)cc1)N/N=C/c1ccc(C(F)(F)F)cc1 [NCL077] |  |  |
|  |  |  |  |  |  | >128 µg/mL | >128 µg/mL | >128 µg/mL | >128 µg/mL | >128 µg/mL | >128 µg/mL | Cl.N=C(N/N=C/c1ccc(Cl)cc1)N/N=C/c1cccc(Cl)c1 [NCL083] |  |  |
|  |  |  |  |  |  | >128 µg/mL | >128 µg/mL | >128 µg/mL | >128 µg/mL | >128 µg/mL | >128 µg/mL | Cl.N#Cc1ccccc1C=NNC(=N)NN=Cc1ccc(Cl)cc1 [NCL085] |  |  |
|  |  |  |  |  |  | >128 µg/mL | >128 µg/mL | >128 µg/mL | 128 µg/mL | >128 µg/mL | >128 µg/mL | Cl.N#Cc1cccc(C=NNC(=N)NN=Cc2ccc(Cl)cc2)c1 [NCL086] |  |  |
|  |  |  |  |  |  | >128 µg/mL | >128 µg/mL | >128 µg/mL | >128 µg/mL | >128 µg/mL | >128 µg/mL | Cl.N#Cc1ccc(/C=N/NC(=N)N/N=C/c2ccc(Cl)cc2)cc1 [NCL087] |  |  |
|  |  |  |  |  |  | >128 µg/mL | >128 µg/mL | >128 µg/mL | >128 µg/mL | >128 µg/mL | >128 µg/mL | Cl.N=C(NC(=O)c1ccccc1)N(N=Cc1ccccc1Cl)C(=O)c1ccccc1 [NCL090] |  |  |
|  |  |  |  |  |  | >128 µg/mL | >128 µg/mL | >128 µg/mL | >128 µg/mL | >128 µg/mL | >128 µg/mL | FC(F)(F)c1ccc(-c2nnc(Nc3ccc(Cl)cc3)[nH]2)cc1 [NCL091] |  |  |
|  |  |  |  |  |  | >128 µg/mL | >128 µg/mL | >128 µg/mL | >128 µg/mL | >128 µg/mL | >128 µg/mL | Clc1ccc(CNc2nnc(-c3ccc(Cl)cc3)[nH]2)cc1 [NCL092] |  |  |
|  |  |  |  |  |  | 64 µg/mL | 128 µg/mL | 64 µg/mL | >128 µg/mL | >128 µg/mL | >128 µg/mL | Cl.N=C(N/N=C/c1ccc2ccccc2c1)N/N=C/c1ccc2ccccc2c1 [NCL093] | greatest activity | greatest activity |
|  |  |  |  |  |  | 128 µg/mL | 128 µg/mL | 64 µg/mL | 128 µg/mL | >128 µg/mL | >128 µg/mL | Cl.N=C(NN=CC1CCCCC1)NN=CC1CCCCC1 [NCL094] | greatest activity | greatest activity |
|  |  |  |  |  |  | >128 µg/mL | >128 µg/mL | >128 µg/mL | >128 µg/mL | >128 µg/mL | >128 µg/mL | Cl.N=C(NN=Cc1ccoc1)NN=Cc1ccoc1 [NCL095] |  |  |
|  |  |  |  |  |  | >128 µg/mL | >128 µg/mL | >128 µg/mL | >128 µg/mL | >128 µg/mL | >128 µg/mL | Cl.N=C(N/N=C/C=C/c1ccccc1)N/N=C/C=C/c1ccccc1 [NCL096] |  |  |
|  |  |  |  |  |  | >128 µg/mL | >128 µg/mL | >128 µg/mL | >128 µg/mL | >128 µg/mL | >128 µg/mL | Cl.N=C(NN=Cc1cccc(C(=O)O)c1)NN=Cc1cccc(C(=O)O)c1 [NCL098] |  |  |
|  |  |  |  |  |  | >128 µg/mL | >128 µg/mL | >128 µg/mL | >128 µg/mL | >128 µg/mL | >128 µg/mL | Cl.N=C(N/N=C/c1ccccc1)N/N=C/c1ccccc1 [NCL100] |  |  |
